Measurements: US12077503B2, “Substituted cyclic amides and their use as herbicides” (FMC CORPORATION, priority 2015, dated 2024)

Experiments:
Format in all cases: in vivo
[1] = test system: giant foxtail (Setaria faberii); experiment: Test A postemergence
Outline: (§1)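 Each rating is a visual injury score from 0 to 100 given about 10 d after treatment, judged against untreated controls kept alongside in the greenhouse. In loam soil–sand blend, seeds got a preemergence directed soil spray, while postemergence plants were 2 to 10 cm tall at spraying.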

[2] = test system: barnyardgrass (Echinochloa crus-galli); experiment: Test A postemergence
Outline: as §1

corn (Zea mays) = experiment: Test A postemergence
Outline: as §1

[3] = test system: ragweed (common ragweed, Ambrosia elatior); experiment: Test A postemergence
Outline: as §1

[4] = test system: Galium (catchweed bedstraw, Galium aparine); experiment: Test A postemergence
Outline: as §1

[5] = test system: blackgrass (Alopecurus myosuroides); experiment: Test A postemergence
Outline: as §1

[6] = test system: pigweed (Amaranthus retroflexus); experiment: Test A postemergence
Outline: as §1

[7] = test system: wheat (Triticum aestivum); experiment: Test A postemergence
Outline: as §1

Kochia (Kochia scoparia) [8] = experiment: Test A postemergence
Outline: as §1

[9] = test system: ryegrass, Italian (Italian ryegrass, Lolium multiflorum); experiment: Test A postemergence
Outline: as §1

[10] = test system: barnyardgrass (Echinochloa crus-galli); experiment: Test B flooded paddy test; details: Flood, 250 g ai/ha; 0 to 100 scale where 0 is no effect and 100 is complete control; 13 to 15 d
Outline: (§2)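 Percent control, visually estimated after 13–15 d in the greenhouse on a 0–100 basis, compares treated pots with untreated ones; compound was put into paddy water 3 cm above the soil when plants had two leaves.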

[11] = test system: ducksalad (Heteranthera limosa); experiment: Test B flooded paddy test; details: Flood, 250 g ai/ha; 0 to 100 scale where 0 is no effect and 100 is complete control; 13 to 15 d
Outline: as §2

rice (Oryra sativa) = experiment: Test B flooded paddy test; details: Flood, 250 g ai/ha; 0 to 100 scale where 0 is no effect and 100 is complete control; 13 to 15 d
Outline: as §2

[12] = test system: sedge, umbrella (small-flower umbrella sedge, Cyperus difformis); experiment: Test B flooded paddy test; details: Flood, 250 g ai/ha; 0 to 100 scale where 0 is no effect and 100 is complete control; 13 to 15 d
Outline: as §2

[13] = test system: giant foxtail (Setaria faberii); experiment: Test A preemergence
Outline: as §1

[14] = test system: barnyardgrass (Echinochloa crus-galli); experiment: Test A preemergence
Outline: as §1

[15] = test system: ragweed (common ragweed, Ambrosia elatior); experiment: Test A preemergence
Outline: as §1

[16] = test system: pigweed (Amaranthus retroflexus); experiment: Test A preemergence
Kochia (Kochia scoparia) [17] = experiment: Test A preemergence
Outline: as §1

[18] = test system: ryegrass, Italian (Italian ryegrass, Lolium multiflorum); experiment: Test A preemergence
Outline: as §1

[19] = 125 g ai/ha, postemergence, visual rating after approx. 10 d, 0 to 100 scale (0 no effect, 100 complete control)
[20] = Postemergence, 500 g ai/ha, 0 to 100 scale where 0 is no effect and 100 is complete control
[21] = 125 g ai/ha, Preemergence, visual injury after approximately 10 d, 0 to 100 scale where 0 is no effect and 100 is complete control
[22] = 500 g ai/ha, preemergence, 0 to 100 scale, 0 = no effect, 100 = complete control

CN1CC(c2ccc(F)c(C(F)(F)F)c2)C(C(=O)Nc2ccccc2S(C)(=O)=O)C1=O (stereo not drawn) [Compound 612]
15: Plant response rating, Rice (rice (Oryra sativa))
90: Plant response rating, Foxtail, Giant [1, 20] | Plant response rating, Barnyardgrass [2, 20] | Plant response rating, Corn (corn (Zea mays); [20]) | Plant response rating, Foxtail, Giant [13, 21] | Plant response rating, Foxtail, Giant [13, 22] | Plant response rating, Barnyardgrass [14, 21] | Plant response rating, Barnyardgrass [14, 22]
60: Plant response rating, Blackgrass [5, 20]
0: Plant response rating, Ragweed [3, 19]
20: Plant response rating, Ragweed [3, 20] | Plant response rating, Pigweed [6, 19] | Plant response rating, Kochia (Kochia (Kochia scoparia) [8]; [19]) | Plant response rating, Ryegrass, Italian [9, 19] | Plant response rating, Kochia (Kochia (Kochia scoparia) [17]; [21]) | Plant response rating, Kochia (Kochia (Kochia scoparia) [17]; [22])
100: Plant response rating, Ducksalad [11]
85: Plant response rating, Sedge, Umbrella [12]
50: Plant response rating, Corn (corn (Zea mays); [19]) | Plant response rating, Galium [4, 20] | Plant response rating, Pigweed [6, 20] | Plant response rating, Ragweed [15, 21] | Plant response rating, Ragweed [15, 22] | Plant response rating, Ryegrass, Italian [18, 21]
65: Plant response rating, Barnyardgrass [10]
40: Plant response rating, Blackgrass [5, 19] | Plant response rating, Kochia (Kochia (Kochia scoparia) [8]; [20])
70: Plant response rating, Foxtail, Giant [1, 19] | Plant response rating, Barnyardgrass [2, 19] | Plant response rating, Ryegrass, Italian [9, 20] | Plant response rating, Pigweed [16, 21] | Plant response rating, Pigweed [16, 22] | Plant response rating, Ryegrass, Italian [18, 22]
30: Plant response rating, Galium [4, 19] | Plant response rating, Wheat [7, 19] | Plant response rating, Wheat [7, 20]
